Assay results: patent US20240317686A1, “RORyT MODULATOR, AND PREPARATION METHOD THEREFOR AND APPLICATION THEREOF” (SHANGHAI PHARMACEUTICALS HOLDING CO., LTD., priority 2020, published 2024)

Biological target: T1, RORγt (Homo sapiens, UniProt P51449)
T1 construct: Prepare 4×RORgt-LBD in 1× buffer
T1 sequence (P51449 269-508 limits assumed): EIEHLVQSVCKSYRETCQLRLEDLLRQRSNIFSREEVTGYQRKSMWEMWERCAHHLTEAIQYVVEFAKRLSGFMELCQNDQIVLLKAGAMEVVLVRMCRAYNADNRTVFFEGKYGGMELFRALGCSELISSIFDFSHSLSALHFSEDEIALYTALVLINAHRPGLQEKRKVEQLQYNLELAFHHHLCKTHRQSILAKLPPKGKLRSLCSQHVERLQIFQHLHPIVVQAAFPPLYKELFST
Assay: Fluorescence resonance energy transfer (FRET) assay of inhibitory activity on RORγt
Format: biochemical
Details: RORgt-LBD GST with SRC peptide
Experimental: Fluorescence resonance energy transfer (FRET) experiment was performed to assay the inhibitory activity of the compound of the present invention on RORγt.
1) Preparation of DMSO stock solutions of the compounds: All compounds were dissolved in DMSO to prepare 10 mM stock solutions.
2) Compound storage: After the compound was dissolved in DMSO, the solution can be stored in a desiccator at room temperature for three months. For long-term storage, the solution should be put in a −20° C. refrigerator.
3) Preparation of working solution: • a) Positive control compound AZD0284: Starting from 500 µM, the solution was diluted serially by 3-folds with DMSO to obtain a 10-concentration gradient, each concentration with 3 replicate wells. 2 wells were pipetted. The gradiently diluted compound was diluted in a reaction buffer to obtain a 4× working solution (starting from 40 μM, diluted gradiently by 3-folds) of the positive control compound. • b) Compounds to be tested: Starting from 500 μM, the solution was diluted serially by 3-folds with DMSO to obtain a 10-concentration gradient, each concentration with 3 replicate wells. 2 wells were pipetted. The gradiently diluted compound was diluted in a reaction buffer to obtain a 4× working solution ([…], diluted gradiently by 3-folds) of the compounds to be tested. • c) Prepare a 4× negative control (8% DMSO). • d) Centrifuge the plate at 1000 rpm for 1 min.
1) Prepare 4× serially diluted compounds in 1× buffer.
2) Add 5 μl of the 4× serially diluted compound (prepared in step 1) to a 384 assay plate (784075, Greiner).
3) Prepare 4×RORgt-LBD in 1× buffer.
4) Add 5 μl of the 4×RORgt-LBD (prepared in step 3) to the 384 assay plate (prepared in step 2).
5) Incubate the assay plate for 15 min at room temperature, protected from light.
6) Prepare a 2× mixture of SRC, anti-GST Eu and streptavidin-d2 in 1× […].
7) Add 10 μl of the 2× mixture (prepared in step 6) to the 384 assay plate (prepared in step 4).
8) Centrifuge the 384 assay plates at 1000 g for 1 min.
9) Incubate for 3 h at room temperature, protected from light.
10) Read the plate at wavelengths of 665 nm and 615 nm on an Envision 2104 plate reader.
Relative ratio (RR): Calculate the relative ratio (response value at 665 nm/response value at 615 nm-response value in blank background) of each well.
Inhibition rate %=[1−(fluorescence detection value of the compound−fluorescence detection average of the positive compound)/(fluorescence detection average of the negative control−fluorescence detection average of the positive compound)]×100
Calculate the IC50 and dose-response curve of the compound: The IC50 and dose-response curve of the compound were obtained via Graphpad 8.0 by calculating the inhibition rate of the compound and the log value of the compound concentration.

CCS(=O)(=O)c1ccc(CC(=O)Nc2ccc(C(=O)C3(c4ccccn4)CC(F)(F)C3)nc2)cc1 [Compound I-54, N-(6-(3,3-difluoro-1-(pyridin-2-yl)cyclobutane-1-carbonyl)pyridin-3-yl)-2-(4-(ethylsulfonyl)phenyl)acetamide]
IC50: 1 to 10 nM

CCS(=O)(=O)c1ccc(CC(=O)Nc2ccc(C(=O)C3(c4ccc(F)cc4)CC(F)(F)C3)nc2)cc1 [Compound I-66]
IC50: 1 to 10 nM

CCS(=O)(=O)c1ccc(CC(=O)Nc2ccc(C(=O)C(C)(C)c3ccc(C(F)(F)F)nc3)nc2)cc1 [Compound I-50]
IC50: 50 to 100 nM

CCS(=O)(=O)c1ccc(CC(=O)Nc2ccc(C(=O)C(C)(C)c3ccc(Cl)cc3)cn2)cc1 [Compound I-2, N-[5-[2-(4-chlorophenyl)-2-methyl-propionyl]-2-pyridyl]-2-(4-ethylsulfonylphenyl)acetamide]
IC50: 10 to 50 nM

CCS(=O)(=O)c1ccc(CC(=O)Nc2ccc(C(=O)C(C)(C)c3ccc(F)cn3)nc2)cc1 [Compound I-28]
IC50: 10 to 50 nM

CCC(C(=O)c1ccc(NC(=O)Cc2ccc(S(=O)(=O)CC)cc2)cn1)c1ccccn1 (stereo not shown) [Compound I-69]
IC50: 10 to 50 nM

CCS(=O)(=O)c1ccc(CC(=O)Nc2ccc(C(=O)C3(c4ccc(Cl)cc4)CCC3)nc2)cc1 [Compound I-8, N-(6-(1-(4-chlorophenyl)cyclobutane-1-carbonyl)pyridin-3-yl)-2-(4-(ethylsulfonyl)phenyl)acetamide]
IC50: 1 to 10 nM

CCS(=O)(=O)c1ccc(CC(=O)Nc2ccc(C(=O)C(C)(C)c3ccccn3)cn2)cc1 [Compound I-71, 2-(4-(ethylsulfonyl)phenyl)-N-(5-(2-methyl-2-(pyridin-2-yl)propionyl)pyridin-2-yl)acetamide]
IC50: 50 to 100 nM

CCS(=O)(=O)c1ccc(CC(=O)Nc2ccc(C(=O)C(C)(C)c3cccc(C(F)(F)F)n3)nc2)cc1 [Compound I-76]
IC50: 1 to 10 nM

CCS(=O)(=O)c1ccc(CC(=O)Nc2ccc(C(=O)C(C)(C)c3cc(Br)ccn3)nc2)cc1 [Compound I-58, N-(6-(2-(4-bromopyridin-2-yl)-2-methylpropionyl)pyridin-3-yl)-2-(4-(ethylsulfonyl)phenyl)acetamide]
IC50: 1 to 10 nM

CCS(=O)(=O)c1ccc(CC(=O)Nc2ccc(C(=O)C(C)(C)c3ccc(C)nc3)nc2)cc1 [Compound I-48, 2-(4-(ethylsulfonyl)phenyl)-N-(6-(2-methyl-2-(6-methylpyridin-3-yl)propionyl)pyridin-3-yl)acetamide]
IC50: 50 to 100 nM

CCS(=O)(=O)c1ccc(CC(=O)Nc2ccc(C(=O)C(C)(C)c3ncccc3F)nc2)cc1 [Compound I-44, 2-(4-(ethylsulfonyl)phenyl)-N-(6-(2-(3-fluoropyridin-2-yl)-2-methylpropionyl)pyridin-3-yl)acetamide]
IC50: 1 to 10 nM

CCS(=O)(=O)c1ccc(CC(=O)Nc2ccc(C(=O)C(C)(C)c3cccc(C#N)n3)nc2)cc1 [Compound I-65]
IC50: 1 to 10 nM

CCS(=O)(=O)c1ccc(CC(=O)Nc2ccc(C(=O)C(C)(C)c3cnn(CC(F)F)c3)nc2)cc1 [Compound I-34]
IC50: 100 to 1000 nM

CCS(=O)(=O)c1ccc(CC(=O)Nc2ccc(C(=O)C(C)(C)c3cc(Cl)cc(C#N)c3)nc2)cc1 [Compound I-27, N-(6-(2-(3-chloro-5-cyanophenyl)-2-methylpropionyl)pyridin-3-yl)-2-(4-(ethylsulfonyl)phenyl) acetamide]
IC50: 1 to 10 nM

CCS(=O)(=O)c1ccc(CC(=O)Nc2ccc(C(=O)C(C)(C)c3ncc(C)cn3)nc2)cc1 [Compound I-59, 2-(4-(ethylsulfonyl)phenyl)-N-(6-(2-methyl-2-(5-methylpyrimidin-2-yl)propionyl)pyridin-3-yl) acetamide]
IC50: 10 to 50 nM

CNS(=O)(=O)c1ccc(CC(=O)Nc2ccc(C(=O)C3(c4ccc(F)cc4)CC(F)(F)C3)nc2)cc1 [Compound I-75, N-(6-(3,3-difluoro-1-(4-fluorophenyl)cyclobutane-1-carbonyl)pyridin-3-yl)-2-(4-(N-methylsulfamoyl)phenyl)acetamide]
IC50: 1 to 10 nM

CCS(=O)(=O)c1ccc(CC(=O)Nc2ccc(C(=O)C(C)(C)c3cccc(C)n3)nc2)cc1 [Compound I-57]
IC50: 1 to 10 nM

CCS(=O)(=O)c1ccc(CC(=O)Nc2ccc(C(=O)C(c3ccccn3)C(C)C)nc2)cc1 (stereo not shown) [Compound I-74]
IC50: 10 to 50 nM

CCS(=O)(=O)c1ccc(CC(=O)Nc2ccc(C(=O)C(C)(C)c3ccc(Cl)cc3)nc2)cc1 [Compound I-3, N-[6-[2-(4-chlorophenyl)-2-methylpropionyl]-3-pyridyl]-2-(4-ethylsulfonylphenyl)acetamide]
IC50: 10 to 50 nM

[2H]C([2H])([2H])n1cc(C(C)(C)C(=O)c2ccc(NC(=O)Cc3ccc(S(=O)(=O)CC)cc3)cn2)cn1 [Compound I-43, 2-(4-(ethylsulfonyl)phenyl)-N-(6-(2-methyl-2-(1-(methyl-D3)-1H-pyrazol-4-yl)propionyl)pyridin-3-yl)acetamide]
IC50: 10 to 50 nM

CCS(=O)(=O)c1ccc(CC(=O)Nc2ccc(C(=O)C(C)(C)c3cnn(CC(F)(F)F)c3)nc2)cc1 [Compound I-33, 2-(4-(ethylsulfonyl)phenyl)-N-(6-(2-methyl-2-(1-(2,2,2-trifluoroethyl)-1H-pyrazol-4-yl)propionyl)pyridin-3-yl)acetamide]
IC50: 10 to 50 nM

CCS(=O)(=O)c1ccc(CC(=O)Nc2ccc(C(=O)C(C)c3ccccn3)nc2)cc1 (stereo not shown) [Compound I-73, 2-(4-(ethylsulfonyl)phenyl)-N-(6-(2-(pyridin-2-yl)propanoyl)pyridin-3-yl)acetamide]
IC50: 10 to 50 nM

CCS(=O)(=O)c1ccc(CC(=O)Nc2ccc(C(=O)C(C)(C)c3ccc(Br)cc3)nc2)cc1 [Compound I-5]
IC50: 1 to 10 nM

CCS(=O)(=O)c1ccc(CC(=O)Nc2ccc(C(=O)C(C)(C)n3ccc(C)n3)nc2)cc1 [Compound I-38]
IC50: > 1000 nM

CCS(=O)(=O)c1ccc(CC(=O)Nc2ccc(C(=O)C(C)(C)c3cccc(Cl)c3)nc2)cc1 [Compound I-1, N-[6-[2-(3-chlorophenyl)-2-methyl-propionyl]-3-pyridyl]-2-(4-ethylsulfonylphenyl)acetamide]
IC50: 1 to 10 nM

CCS(=O)(=O)c1ccc(CC(=O)Nc2ccc(C(=O)C(C)(C)c3ncc(F)cc3F)nc2)cc1 [Compound I-41, N-[6-[2-(3,5-difluoro-2-pyridyl)-2-methyl-propionyl]-3-pyridyl]-2-(4-ethylsulfonylphenyl)acetamide]
IC50: 1 to 10 nM

CCS(=O)(=O)c1ccc(CC(=O)Nc2ccc(C(=O)C(C)(C)c3ccc(F)cc3F)nc2)cc1 [Compound I-12, N-(6-(2-(2,4-difluorophenyl)-2-methylpropionyl)pyridin-3-yl)-2-(4-(ethylsulfonyl)phenyl)acetamide]
IC50: 1 to 10 nM

CCS(=O)(=O)c1ccc(CC(=O)Nc2ccc(C(=O)C(C)(C)c3ccccn3)nc2)cc1 [Compound I-20, 2-(4-(ethylsulfonyl)phenyl)-N-(6-(2-methyl-2-(pyridin-2-yl)propanoyl)pyridin-3-yl)acetamide]
IC50: 10 to 50 nM

CNS(=O)(=O)c1ccc(CC(=O)Nc2ccc(C(=O)C(C)(C)c3ccccn3)nc2)cc1 [Compound I-63, N-(6-(2-methyl-2-(pyridin-2-yl)propionyl)pyridin-3-yl)-2-(4-(N-methylsulfamoyl)phenyl)acetamide]
IC50: 10 to 50 nM

CCS(=O)(=O)c1ccc(CC(=O)Nc2ccc(C(=O)C(C)(C)c3ccc(Cl)cn3)nc2)cc1 [Compound I-31]
IC50: 1 to 10 nM
